This passage reports Kd and FFC results from EP1383793B1 (priority 2000, dated 2001).

Residues, ends and D or L forms follow the SMILES beside them. No end group written: not given here. Where only a bound is given, the exact number is not on record here.

The target of the first assay is T1, human insulin receptor (HIR) (Homo sapiens, UniProt P06213).
T1 construct: made in house
T1 sequence (P06213 28-758 limits assumed): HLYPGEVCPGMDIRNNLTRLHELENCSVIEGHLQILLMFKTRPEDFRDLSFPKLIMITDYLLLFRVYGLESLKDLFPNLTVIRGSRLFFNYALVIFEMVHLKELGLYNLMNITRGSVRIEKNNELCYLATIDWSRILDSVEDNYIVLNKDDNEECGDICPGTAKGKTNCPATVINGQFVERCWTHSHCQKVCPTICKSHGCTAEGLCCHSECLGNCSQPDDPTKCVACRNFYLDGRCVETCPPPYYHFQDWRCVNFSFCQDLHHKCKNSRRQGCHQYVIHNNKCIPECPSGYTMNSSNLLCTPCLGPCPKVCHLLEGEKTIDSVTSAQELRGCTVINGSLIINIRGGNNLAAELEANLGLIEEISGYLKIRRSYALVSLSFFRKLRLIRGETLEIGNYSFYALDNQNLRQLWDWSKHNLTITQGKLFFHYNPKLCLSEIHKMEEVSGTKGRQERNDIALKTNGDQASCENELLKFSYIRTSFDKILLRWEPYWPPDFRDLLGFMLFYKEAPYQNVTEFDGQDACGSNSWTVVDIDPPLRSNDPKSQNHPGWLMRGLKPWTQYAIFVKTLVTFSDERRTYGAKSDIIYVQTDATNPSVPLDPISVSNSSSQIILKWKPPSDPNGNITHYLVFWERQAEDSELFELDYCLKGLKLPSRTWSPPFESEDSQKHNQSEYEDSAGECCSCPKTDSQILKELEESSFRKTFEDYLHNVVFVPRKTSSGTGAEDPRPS
T1 sequence (P06213 763-1382 limits assumed): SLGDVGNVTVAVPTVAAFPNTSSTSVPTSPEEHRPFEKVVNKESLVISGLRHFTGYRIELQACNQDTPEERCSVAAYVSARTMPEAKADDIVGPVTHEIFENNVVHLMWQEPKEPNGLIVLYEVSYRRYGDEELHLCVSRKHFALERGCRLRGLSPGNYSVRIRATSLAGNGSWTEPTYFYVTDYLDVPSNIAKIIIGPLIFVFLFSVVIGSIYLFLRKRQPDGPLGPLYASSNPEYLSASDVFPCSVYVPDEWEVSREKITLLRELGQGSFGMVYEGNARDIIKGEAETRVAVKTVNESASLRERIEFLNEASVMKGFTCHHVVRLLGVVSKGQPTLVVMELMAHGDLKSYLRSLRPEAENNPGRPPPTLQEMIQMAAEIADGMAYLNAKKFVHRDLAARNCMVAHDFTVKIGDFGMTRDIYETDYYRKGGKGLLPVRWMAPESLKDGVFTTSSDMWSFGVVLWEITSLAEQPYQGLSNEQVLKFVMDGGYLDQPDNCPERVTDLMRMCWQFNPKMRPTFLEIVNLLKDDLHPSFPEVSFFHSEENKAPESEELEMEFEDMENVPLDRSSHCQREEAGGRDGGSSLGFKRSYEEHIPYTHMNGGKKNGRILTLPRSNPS
Put plainly: 125I-insulin competition binding assay on solubilised purified receptor. The following applies: read-out: HIR affinity.
As to ALEEEWAWVQVRSIRSGLPL-NH2 [Clone S284], the Kd is more than 20 µM. For AFYEWFAKK-NH2 [Clone S214], the Kd is more than 20 µM.

For the next assay, the system named is adipocytes. The assay is described as follows: 3H-glucose uptake into adipocytes (fat cell assay, FFC). The class given is cell-based, Mouse. More on the design: key to FFC: 0 is no effect; + is agonist; - is antagonist.
Details: not given
With IQGWEPFYGWFDDWAQMFEE-NH2 [Clone S264], the FFC turned out to be 0.

As for NSFYEALRMLSSK [Clone S121], the FFC was found to be 0. Still for that read-out and setting: then `CC(C)C[C@H](NC(=O)[C@H](CCC(=O)O)NC(=O)[C@H](C)NC(=O)[C@@H](NC(=O)[C@H](Cc1ccccc1)NC(=O)[C@H](Cc1c[nH]c2ccccc12)NC(=O)[C@H](CC(=O)O)NC(=O)[C@H](Cc1ccc(O)cc1)NC(=O)[C@H](Cc1ccccc1)NC(=O)[C@H](CC(N)=O)NC(=O)[C@H](C)NC(=O)[C@H](CC(N)=O)NC(=O)[C@H](CCCNC(=N)N)NC(=O)[C@H](CCC(N)=O)NC(=O)[C@@H](N)CC(C)C)C(C)C)C(=O)NCC(=O)O` [Clone S238], with 0; and HPPLSELKLFLIKK [Clone S124], with 0; and FQSLLEELVWGAPLFRYGTG [Clone S224], with 0. Consider `CC(C)[C@H](NC(=O)[C@H](Cc1ccccc1)NC(=O)[C@H](Cc1c[nH]c2ccccc12)NC(=O)CNC(=O)[C@H](Cc1ccc(O)cc1)NC(=O)[C@H](Cc1ccccc1)NC(=O)[C@H](CC(N)=O)NC(=O)[C@H](CCC(=O)O)NC(=O)[C@@H](N)Cc1c[nH]cn1)C(=O)N[C@@H](CCCNC(=N)N)C(=O)N[C@@H](CCC(N)=O)C(=O)N[C@H](C(=O)N[C@@H](CO)C(=O)N[C@@H](CCCCN)C(=O)N[C@@H](CCCCN)C(=O)O)C(C)C` [Clone S137], for which the FFC turned out to be 0. Consider GRVDWLQRNANFYDWFVA [Clone S250], for which the FFC turned out to be 0.

In the case of GRVDWLQRNANFYDWFVAE [Clone S249], the FFC was 0. In the case of HETFYSMIRSLAK [Clone S117], the FFC came to 0. HDPFYSMMKSLLK [Clone S120]: the FFC is 0. On the same count and under the same terms, for `CC(C)C[C@H](NC(=O)[C@H](CCC(=O)O)NC(=O)[C@H](C)NC(=O)[C@@H](NC(=O)[C@H](Cc1ccccc1)NC(=O)[C@H](Cc1c[nH]c2ccccc12)NC(=O)[C@H](CC(=O)O)NC(=O)[C@H](Cc1ccc(O)cc1)NC(=O)[C@H](Cc1ccccc1)NC(=O)[C@H](CC(N)=O)NC(=O)[C@H](C)NC(=O)[C@H](CC(N)=O)NC(=O)[C@H](CCCNC(=N)N)NC(=O)[C@H](CCC(N)=O)NC(=O)[C@H](CC(C)C)NC(=O)[C@@H](N)Cc1c[nH]c2ccccc12)C(C)C)C(=O)NCC(=O)O` [Clone S237] the value was 0. Turning to `CC(C)C[C@@H]1NC(=O)[C@H](CO)NC(=O)[C@H](C)NC(=O)CNC(=O)CNC(=O)[C@H](Cc2ccccc2)NC(=O)[C@H](CC(C)C)NC(=O)[C@H](CCC(=O)O)NC(=O)[C@H](CCC(N)=O)NC(=O)[C@H](CC(C)C)NC(=O)[C@H](Cc2ccccc2)NC(=O)[C@@H](NC(=O)[C@H](CC(C)C)NC(=O)[C@@H]2CCCN2)CSSC[C@@H](C(=O)N[C@@H](CO)C(=O)NCC(N)=O)NC(=O)[C@H](Cc2ccc(O)cc2)NC(=O)CNC(=O)CNC1=O` [Clone S262] (HELM PEPTIDE1{P.L.C.F.L.Q.E.L.F.G.G.A.S.L.G.G.Y.C.S.G.[am]}$PEPTIDE1,PEPTIDE1,3:R3-18:R3$$$V2.0; N-terminus assumed; bridges inferred), the FFC is 0.

Consider HPSTNQMLMKLFK [Clone S123], for which the FFC is 0. The same measure, in the same setting: for `CC[C@H](C)[C@@H]1NC(=O)[C@H](CCC(=O)O)NC(=O)[C@@H](NC(=O)[C@H](Cc2c[nH]c3ccccc23)NC(=O)[C@@H](NC(=O)[C@H](Cc2c[nH]c3ccccc23)NC(=O)[C@H](C)NC(=O)[C@H](CCCNC(=N)N)NC(=O)[C@H](CCC(=O)O)NC(=O)[C@H](CCC(N)=O)NC(=O)[C@H](CCC(=O)O)NC(=O)[C@H](CC(C)C)NC(=O)[C@@H](N)Cc2c[nH]c3ccccc23)[C@@H](C)CC)CSSC[C@@H](C(=O)N[C@@H](CCCNC(=N)N)C(=O)N[C@@H](C)C(N)=O)NC(=O)CNC(=O)[C@H](CO)NC(=O)CNC(=O)[C@H](CCC(N)=O)NC1=O` [Clone S263] (HELM PEPTIDE1{W.L.E.Q.E.R.A.W.I.W.C.E.I.Q.G.S.G.C.R.A.[am]}$PEPTIDE1,PEPTIDE1,11:R3-18:R3$$$V2.0; N-terminus assumed; bridges inferred) the value was 0; for EFHENFYDWFVRQVSEE [Clone S115], “+”; for `CC(C)C[C@H](NC(=O)CNC(=O)[C@H](CCC(N)=O)NC(=O)[C@H](Cc1ccccc1)NC(=O)[C@H](Cc1ccc(O)cc1)NC(=O)[C@H](CO)NC(=O)[C@H](Cc1ccc(O)cc1)NC(=O)[C@H](Cc1ccccc1)NC(=O)[C@H](CC(=O)O)NC(=O)[C@H](CO)NC(=O)[C@@H](N)Cc1c[nH]c2ccccc12)C(=O)N[C@@H](CC(=O)O)C(=O)O` [Clone S127], 0. Still for that read-out and setting: then HPTSKEIYAKLLK [Clone S122], with 0. For the compound FHENFADWFVRQVSKK [Clone S220], the FFC worked out at 0. The same measure, in the same setting: for SSNFYQALMLLS [Clone S129] the value was 0. Consider `CC[C@H](C)[C@H](NC(=O)[C@H](C)NC(=O)[C@H](CC(N)=O)NC(=O)[C@H](Cc1ccc(O)cc1)NC(=O)[C@H](Cc1ccccc1)NC(=O)CNC(=O)[C@H](CC(=O)O)NC(=O)[C@@H](N)CO)C(=O)N[C@@H](CCC(=O)O)C(=O)N[C@@H](CC(C)C)C(=O)N[C@@H](CC(C)C)C(=O)N[C@@H](CO)C(=O)O` [Clone S118], for which the FFC result is “+”. Same read-out and setting: then FHENFYDWFVRQVSK [Clone S158], with “+”. On the same count and under the same terms, then `CC(C)C[C@H](NC(=O)[C@H](CCC(=O)O)NC(=O)[C@H](C)NC(=O)[C@@H](NC(=O)[C@H](Cc1ccccc1)NC(=O)[C@H](Cc1c[nH]c2ccccc12)NC(=O)[C@H](CC(=O)O)NC(=O)[C@H](Cc1ccc(O)cc1)NC(=O)[C@H](Cc1ccccc1)NC(=O)[C@H](CC(N)=O)NC(=O)[C@H](C)NC(=O)[C@H](CC(N)=O)NC(=O)[C@H](CCCNC(=N)N)NC(=O)[C@@H](N)CCC(N)=O)C(C)C)C(=O)NCC(=O)O` [Clone S239], with 0; and `CC(C)[C@@H](NC(=O)[C@@H](Cc1ccccc1)NC(=O)[C@@H](Cc1c[nH]c2ccccc12)NC(=O)[C@@H](CC(=O)O)NC(=O)[C@@H](Cc1ccc(O)cc1)NC(=O)[C@@H](Cc1ccccc1)NC(=O)[C@@H](CC(N)=O)NC(=O)[C@@H](CCC(=O)O)NC(=O)[C@@H](Cc1c[nH]cn1)NC(=O)[C@H](N)Cc1ccccc1)C(=O)N[C@H](CCCNC(=N)N)C(=O)N[C@H](CCC(N)=O)C(=O)N[C@@H](C(=O)N[C@H](CO)C(=O)N[C@H](CCCCN)C(=O)N[C@H](CCCCN)C(=O)O)C(C)C` [Clone S114], with 0; and `CC(C)[C@H](NC(=O)[C@H](Cc1ccccc1)NC(=O)[C@H](Cc1c[nH]c2ccccc12)NC(=O)[C@H](CC(=O)O)NC(=O)[C@H](Cc1ccc(O)cc1)NC(=O)[C@H](Cc1ccccc1)NC(=O)[C@H](CC(N)=O)NC(=O)[C@H](CCC(=O)O)NC(=O)[C@H](Cc1c[nH]cn1)NC(=O)[C@@H](N)Cc1ccccc1)C(=O)N[C@@H](CCCNC(=N)N)C(=O)N[C@@H](CCC(N)=O)C(=O)N[C@H](C(=O)N[C@@H](CO)C(=O)N[C@@H](CCCCN)C(=O)N[C@@H](CCCCN)C(=O)NCC[C@H](NC(=O)[C@H](CCCCN)NC(=O)[C@H](CCCCN)NC(=O)[C@H](CO)NC(=O)[C@@H](NC(=O)[C@H](CCC(N)=O)NC(=O)[C@H](CCCNC(=N)N)NC(=O)[C@@H](NC(=O)[C@H](Cc1ccccc1)NC(=O)[C@H](Cc1c[nH]c2ccccc12)NC(=O)[C@H](CC(=O)O)NC(=O)[C@H](Cc1ccc(O)cc1)NC(=O)[C@H](Cc1ccccc1)NC(=O)[C@H](CC(N)=O)NC(=O)[C@H](CCC(=O)O)NC(=O)[C@H](Cc1c[nH]cn1)NC(=O)[C@@H](N)Cc1ccccc1)C(C)C)C(C)C)C(N)=O)C(C)C` [Clone S152], with “+”. As for FHENFTDWAVRQVSKK [Clone S223], the FFC is 0.

For the compound SLNFYDALQLLAKK [Clone S119], the FFC came out at 0. As to `CC(C)[C@H](NC(=O)[C@H](Cc1ccccc1)NC(=O)[C@H](Cc1c[nH]c2ccccc12)NC(=O)[C@H](CC(=O)O)NC(=O)[C@H](Cc1ccc(O)cc1)NC(=O)[C@H](Cc1ccccc1)NC(=O)[C@H](CC(N)=O)NC(=O)[C@H](CCC(=O)O)NC(=O)[C@H](Cc1c[nH]cn1)NC(=O)[C@@H](N)Cc1ccccc1)C(=O)N[C@@H](CCCNC(=N)N)C(=O)N[C@@H](CCC(N)=O)C(=O)N[C@H](C(=O)N[C@@H](CO)C(=O)N[C@@H](CCCCN)C(=O)N[C@@H](CCCCN)C(=O)N[C@@H](CNC(=O)CON)C(N)=O)C(C)C` [Clone S131], the FFC entry is given as “+”. Consider `CC(C)C[C@@H]1NC(=O)[C@H](CCC(=O)O)NC(=O)[C@@H](NC(=O)[C@H](CC(C)C)NC(=O)[C@@H](NC(=O)[C@H](CCCNC(=N)N)NC(=O)[C@H](CC(C)C)NC(=O)[C@@H](N)CC(=O)O)C(C)C)CSSC[C@@H](C(=O)N[C@@H](CO)C(=O)N[C@@H](CCC(=O)O)C(N)=O)NC(=O)[C@H](Cc2ccc(O)cc2)NC(=O)CNC(=O)[C@H](CC(C)C)NC(=O)[C@H](C(C)C)NC(=O)[C@H](Cc2ccc(O)cc2)NC(=O)[C@H](C)NC(=O)CNC(=O)CNC(=O)[C@H](Cc2ccccc2)NC1=O` [Clone S281] (HELM PEPTIDE1{D.L.R.V.L.C.E.L.F.G.G.A.Y.V.L.G.Y.C.S.E.[am]}$PEPTIDE1,PEPTIDE1,6:R3-18:R3$$$V2.0; N-terminus assumed; bridges inferred), for which the FFC was 0. Same read-out and setting: then FHENAYDWFVRQVSKK [Clone S219], with 0.
